Experimental data taken from US20220389230A1, “BLAST FURNACE SLAG-TYPE PAINT” (FUKKO CO., LTD., priority 2019, published 2022).
Where two headings read alike, the source gives them in different places.

Legend:
[1] = Confirmation of safety: presence or absence of danger (Table 2)
Method: The presence or absence of danger was evaluated based on the concentration adjustment work in Table 1 and whether or not it was subject to legal regulations.

[2] = Table 2; cited from earlier work
[3] = Corrosiveness of alkaline substances to aluminum, change in appearance after 24 hours
Method: For comparison with the aqueous solution shown in Table 3, a slurry liquid obtained by adding 10 parts by weight of water to 20 parts by weight of ordinary Portland cement was allowed to contact with an aluminum plate (A1050) not subjected to the surface treatment and an aluminum sash frame coated with a sulfuric acid anodized film at the spot, and a change in the appearance after 24 hours was observed.

[4] = pH and heat of dissolution of aqueous solutions that may give an alkaline stimulus (Table 1)

**Q.** What does the source list for `N` [ammonia]?
**A.** Judging danger to human body [1]: Very dangerous; odor [1]: Pungent; Existance of legal regulation [2]: Drastic medicine

**Q.** Which “pH of aqueous solution” value [3] does the source give for `[K+].[OH-]` [Potassium hydroxide] here?
**A.** 15

**Q.** What about the “Judging danger to human body” value [1] of the same compound?
**A.** Very dangerous

**Q.** What about the odor [1] of the same compound?
**A.** Odorless

**Q.** What about the “Existance of legal regulation” value [2] of the same compound?
**A.** Drastic medicine

**Q.** And the “Generation of heat of dissolution” value [4]?
**A.** Large

**Q.** For `O=C([O-])[O-].[K+].[K+]` [Potassium carbonate], which “pH of aqueous solution” value [3] is on record?
**A.** 11

**Q.** What about the “Judging danger to human body” value [1] of the same compound?
**A.** The risk is small

**Q.** What about the odor [1] of the same compound?
**A.** Odorless

**Q.** And the “Existance of legal regulation” value [2]?
**A.** No regulation

**Q.** And the “Generation of heat of dissolution” value [4]?
**A.** Medium

**Q.** With `[Na+].[OH-]` [Sodium hydroxide] as the compound, how does the “Existance of legal regulation” value [2] read?
**A.** Drastic medicine

**Q.** What about the “Generation of heat of dissolution” value ([4]; Table 1, concentration adjustment of the aqueous solution) of the same compound?
**A.** Large

**Q.** For `[Ca+2].[OH-].[OH-]` [Calcium hydroxide], which “pH of aqueous solution” value [3] is on record?
**A.** 12

**Q.** And the “Judging danger to human body” value [1]?
**A.** The risk is small

**Q.** What about the odor [1] of the same compound?
**A.** Odorless

**Q.** What about the “Existance of legal regulation” value [2] of the same compound?
**A.** No regulation

**Q.** With `O=C([O-])[O-].[Na+].[Na+]` [sodium carbonate] as the compound, how does the “pH of aqueous solution” value [3] read?
**A.** 12

**Q.** What about the “Judging danger to human body” value [1] of the same compound?
**A.** The risk is small

**Q.** And the odor [1]?
**A.** Odorless

**Q.** What about the “Existance of legal regulation” value [2] of the same compound?
**A.** No regulation

**Q.** What about the “Generation of heat of dissolution” value [4] of the same compound?
**A.** Medium

**Q.** For `O=C([O-])CC(O)(CC(=O)[O-])C(=O)[O-].[Na+].[Na+].[Na+]` [Sodium citrate], which “Judging danger to human body” value [1] is on record?
**A.** The risk is small

**Q.** What about the odor [1] of the same compound?
**A.** Odorless

**Q.** What about the “Existance of legal regulation” value [2] of the same compound?
**A.** No regulation
